Here are results for two molecules from patent US5945566A, “Amino compounds of 6,7,8,9-tetrahydro-cyclopenta[a]naphthalene and of 2,3-dihydro-cyclopenta[e]indene” (Adir et Compagnie, priority 1997, dated 1999).

Test [1] deals with T1, human dopamine D3 receptor (Homo sapiens, UniProt P35462).
T1 construct: expressed in transfected cells; membranes
Briefly: human D3 receptor binding ([125I]-iodosulpride, CHO membranes). Here is the method: (§1) .check mark. In vitro: human D2 and D3 receptor binding study
(§2) CHO (Chinese Hamster Ovary) cells were transfected in a stable manner by the gene that codes for the human dopamine D2 or D3 receptor according to methods known from the literature. The native cells are deficient in the enzyme DHFR (DiHydroFolate Reductase). The cells are cultured in an incubator at 37° C. in a humid atmosphere of 5% CO2 /95% air. The transfections are carried out using Lipofectin (Gibco). The CHO cells, co-transfected with the human D2 receptor and the gene for resistance to phleomycin, were selected for their resistance to the presence of that antibiotic in the culture medium. The cells transfected with the human D3 receptor were selected in a medium containing no hypoxanthine/thymidine in the presence of methotrexate. […]
(§3) The ranges of concentration of each compound include at least seven points determined in triplicate, each experiment being repeated at least twice.
(§4) The incubation, which lasts for thirty minutes at 30° C., is terminated by means of rapid filtration over a Brandle apparatus, followed by three consecutive rinses with Tris-HCl buffer, pH 7.4, containing 120 mM NaCl. The filters recovered are then counted using a gamma counter. […]

Test [2] has as its target T2, human dopamine D2 receptor (Homo sapiens, UniProt P14416).
T2 construct: expressed in transfected cells; membranes
The experiment in a line: human D2 receptor binding ([125I]-iodosulpride, CHO membranes). Particulars: dissociation constant of radioligand. Here is the method:
as §1, §2, §3, §4

T1 sequence (P35462 whole entry): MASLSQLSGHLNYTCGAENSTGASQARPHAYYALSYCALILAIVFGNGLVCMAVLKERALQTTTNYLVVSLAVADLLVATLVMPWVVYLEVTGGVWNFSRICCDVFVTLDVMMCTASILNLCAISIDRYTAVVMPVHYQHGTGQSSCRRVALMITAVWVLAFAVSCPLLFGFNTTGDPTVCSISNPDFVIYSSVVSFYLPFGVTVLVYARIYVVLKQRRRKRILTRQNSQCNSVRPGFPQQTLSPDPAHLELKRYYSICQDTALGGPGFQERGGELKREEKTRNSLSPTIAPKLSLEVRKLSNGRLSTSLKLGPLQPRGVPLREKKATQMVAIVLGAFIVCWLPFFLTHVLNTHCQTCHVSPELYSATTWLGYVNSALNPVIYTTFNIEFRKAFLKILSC
T2 sequence (P14416 whole entry): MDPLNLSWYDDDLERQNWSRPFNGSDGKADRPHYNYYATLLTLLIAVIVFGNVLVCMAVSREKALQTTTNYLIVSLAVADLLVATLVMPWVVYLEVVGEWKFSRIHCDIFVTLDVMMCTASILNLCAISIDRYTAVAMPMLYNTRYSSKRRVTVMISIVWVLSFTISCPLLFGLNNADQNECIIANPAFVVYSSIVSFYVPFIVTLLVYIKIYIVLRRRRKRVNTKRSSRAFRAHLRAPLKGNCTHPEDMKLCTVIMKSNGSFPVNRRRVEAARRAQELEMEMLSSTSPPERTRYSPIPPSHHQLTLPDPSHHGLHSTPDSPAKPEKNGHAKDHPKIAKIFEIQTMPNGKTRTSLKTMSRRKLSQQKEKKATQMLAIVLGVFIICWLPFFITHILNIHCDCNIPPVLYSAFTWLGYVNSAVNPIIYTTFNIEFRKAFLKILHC

[^125 I]-iodosulpride: the results for the Kd in test [1] (dissociation constant of radioligand) and in test [2] were 1.31 nM and 0.5 nM, respectively.

In test [1] ([125I]-iodosulpride 0.2 nM, CHO membranes, pKi = -logKi), `CCCN(CCC)C1CCc2c(ccc3c2C(=O)CC3)C1` (racemic) [Example 2, (7R,S)-7-(N,N-Dipropylamino)-6,7,8,9-tetrahydro-cyclopenta[a]-naphthalen-1-one] showed a Ki of 10 nM.

What is called Kd is a measure of binding affinity in units of concentration. One may read the Ki as the dissociation constant of the complex between target and ligand, obtained from inhibition or displacement.
